# Earlier results in article PMC7482441 (Pharmacological Research, 2020).
# Legend:
# mdx mice = settings: cited from earlier work
# BIO 14.6 hamster = settings: cited from earlier work
compound,measurement,setting,value
CC(C)c1ccc(C(=O)NC(=N)N)cc1S(C)(=O)=O [Cariporide],"creatine kinase (CK) levels, inflammation, fibrosis and histological skeletal muscle damage",mdx mice,markedly reduced
same,intracellular Ca2+ levels and Na+ influx,BIO 14.6 hamster,normalised
